Experiments:
[1] = target: EGFR L858R/T790M/C797S mutant enzyme (Homo sapiens (Human), UniProt P00533, C797S/L858R/T790M); experiment: EGFR mutant enzyme inhibition, HTRF system (Cisbio); assay type: biochemical; settings: ATP 1 mM, 37° C. for 2 hours
Description: In order to evaluate the inhibitory activity of the compound represented by formula 1 according to the present invention against EGFR mutation, the following experiment was performed.
The activity of the compound of the present invention against EGFR mutant enzyme was measured using the HTRF system of Cisbio Co. As an EGFR L858R/T790M/C797S mutant enzyme, a protein provided by SignalChem was purchased and used as an enzyme source.
The composition of the assay buffer used for the activity measurement was as follows: 50 mM Tris-HCl (pH 7.5), 100 mM NaCl, 7.5 mM MgCl2, 3 mM KCl, 0.01% Tween 20, 0.1% BSA, and 1 mM DTT. Herein, an enzyme reaction was performed using a peptide substrate labeled with ATP at the concentration of 1 mM and biotin at the concentration of 0.5 μM. The analysis of the EGFR activity inhibitory effect of the compound was performed according to the following analytical reaction recipe.
Component 1: 4 μl of EGFR mutant enzyme
Component 2: 2 μl of compound solution
Component 3: 4 μl of ATP and biotin-labeled peptide mixture
The enzyme reaction was initiated by mixing the component 1 and the component 2 first and then adding the component 3 thereto. After reacting the mixture at 37° C. for 2 hours, 10 μl of a measurement solution consisting of streptavidin-XL665 and europium-labeled anti-phosphotyrosine antibody provided by Cisbio was added to the enzyme reaction solution, followed by reaction at room temperature for 1 hour. Finally, the ratio of the fluorescence values at 615 nm and 665 nm was calculated using Envision equipment of Perkin-Elmer to quantitatively measure the enzyme activity and confirm the inhibitory ability of the compound. The values measured at 7 concentrations of the compound were analyzed using Prism program (version 5.01, Graphpad Software, Inc.), and the IC50 value, an index of the inhibitory ability of the compound, was calculated.

[2] = test system: Ba/F3 EGFR L858R/T790M; experiment: Ba/F3 cell viability, CellTiter-Glo; assay type: cell-based; settings: for cell viability: administered alone, FIGS. 1 to 4; for cell viability compared to EAI045: co-administered with Cetuximab, 30 nM or 100 nM, FIGS. 6 and 7
Description: In order to confirm that the compound represented by formula 1 according to the present invention acted as an allosteric inhibitor against EGFR wild-type and mutants, the inhibitory effect on EGFR wild-type and mutants in Ba/F3 cell lines was evaluated. In addition, in order to evaluate the cellular activity when the compound according to the present invention was co-administered with an existing drug, the cellular activity according to the combined administration was evaluated using Cetuximab used alone or in combination with chemotherapy in metastatic colorectal cancer and metastatic squamous head and neck cancer.
Particularly, the activity of the compound of the present invention against the wild-type and mutant Ba/F3 EGFR cell lines was measured as follows using the CellTiter-Glo system of Promega. CellTiter-Glo assay is a method to confirm the cell viability by measuring ATP present in cells in cell culture state. Ba/F3 EGFR wild-type and Ba/F3 EGFR L858R, Ba/F3 EGFR L858R/T790M and Ba/F3 L858R/T790M/C797S mutant cell lines were purchased from Crown Bioscience and used. Ba/F3 EGFR wild-type and Ba/F3 EGFR L858R, Ba/F3 EGFR L858R/T790M and Ba/F3 L858R/T790M/C797S mutant cell lines were cultured in RPMI containing 10% FBS, 1% penicillin-streptomycin and 1 ug/ml of puromycine in a 37° C., 5% CO2 incubator.
Analysis of the cell survival inhibitory effect of the compound according to each EGFR mutant was performed according to the following analytical reaction recipe.
BaF3 cells were aliquoted into 2500 cells/50 ul per well of a 96 well cell culture plate and cultured for 24 hours, to which 50 ul of the compound represented by formula 1 was treated at the concentrations of 0, 0.03, 0.1, 0.3, and 1 μM. The plate treated with the compound was reacted in a 37° C. incubator for 72 hours, and then left at room temperature for 30 minutes according to the CellTiter-Glo assay instruction to maintain the plate temperature at room temperature. Thereafter, 100 μl of CellTiter-Glo reagent was treated to each well of the plate, followed by shaking incubation at room temperature for 10 minutes. Finally, the […] was quantitatively measured using a luminometer, and the ability of the compound to inhibit cell viability was confirmed. The values measured at concentrations of the compound were analyzed using Prism program (version 5.01, Graphpad Software, Inc.), and the IC50 value, an index of the inhibitory ability of the compound, was calculated.

Chain of EGFR L858R/T790M/C797S mutant enzyme (P00533 25-1210 T790M/C797S/L858R): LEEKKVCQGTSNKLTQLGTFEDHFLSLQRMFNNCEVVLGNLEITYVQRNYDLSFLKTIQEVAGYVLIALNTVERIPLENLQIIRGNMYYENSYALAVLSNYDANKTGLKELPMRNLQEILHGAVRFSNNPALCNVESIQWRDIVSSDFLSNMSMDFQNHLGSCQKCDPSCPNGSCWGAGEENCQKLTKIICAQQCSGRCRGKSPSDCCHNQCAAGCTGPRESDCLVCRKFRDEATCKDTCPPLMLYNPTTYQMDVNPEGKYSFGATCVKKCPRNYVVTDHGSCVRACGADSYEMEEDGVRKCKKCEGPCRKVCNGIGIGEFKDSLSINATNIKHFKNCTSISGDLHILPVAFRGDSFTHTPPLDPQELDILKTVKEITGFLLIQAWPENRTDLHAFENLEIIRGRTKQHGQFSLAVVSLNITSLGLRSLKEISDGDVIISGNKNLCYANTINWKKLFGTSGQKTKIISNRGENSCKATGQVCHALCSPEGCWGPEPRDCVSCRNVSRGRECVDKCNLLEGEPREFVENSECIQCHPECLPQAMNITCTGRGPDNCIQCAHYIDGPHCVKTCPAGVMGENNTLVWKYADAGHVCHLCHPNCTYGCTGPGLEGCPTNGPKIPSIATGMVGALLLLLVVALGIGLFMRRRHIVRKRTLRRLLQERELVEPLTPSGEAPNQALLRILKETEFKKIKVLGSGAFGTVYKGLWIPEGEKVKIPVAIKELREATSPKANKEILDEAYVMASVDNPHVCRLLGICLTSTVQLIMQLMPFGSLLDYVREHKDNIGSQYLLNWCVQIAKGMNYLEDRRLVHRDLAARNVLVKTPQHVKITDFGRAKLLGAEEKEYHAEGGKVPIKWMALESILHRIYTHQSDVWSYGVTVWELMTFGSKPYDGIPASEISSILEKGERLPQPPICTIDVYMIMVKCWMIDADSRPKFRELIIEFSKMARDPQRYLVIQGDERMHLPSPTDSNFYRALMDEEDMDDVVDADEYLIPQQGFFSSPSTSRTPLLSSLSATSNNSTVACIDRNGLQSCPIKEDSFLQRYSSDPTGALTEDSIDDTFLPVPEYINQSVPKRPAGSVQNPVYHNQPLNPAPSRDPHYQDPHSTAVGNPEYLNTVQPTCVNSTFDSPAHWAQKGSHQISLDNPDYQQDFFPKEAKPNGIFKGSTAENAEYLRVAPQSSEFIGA

| SMILES | IC50 [1] | cell viability [2] | cell viability compared to EAI045 [2] |
| --- | --- | --- | --- |
| Nc1ccc(-c2ccc3c(c2)C(=O)N(C(c2nc4ccccc4[nH]2)c2cc(F)ccc2O)C3)cc1 (stereo not shown) [Example 13, 2-((1H-benzo[d]imidazole-2-yl)(5-fluoro-2-hydroxyphenyl)methyl)-6-(4-aminophenyl)isoindolin-1-one] | 98 nM | increased cell viability |  |
| O=C1c2cc(-c3ccc(N4CCNCC4)cc3)ccc2CN1C(c1nc2ccccc2[nH]1)c1ccccc1O (stereo not shown) [Example 9, 2-((1H-benzo[d]imidazole-2-yl)(2-hydroxyphenyl)methyl)-6-(4-(piperazine-1-yl)phenyl)isoindolin-1-one] | 91 nM | increased cell viability | significantly reduced the cell viability |
| O=C1c2cc(-c3ccc(N4CCNCC4)cc3)ccc2CN1[C@@H](c1cc2ccccc2[nH]1)c1cc(Cl)ccc1O [Example 33, (R)-2-((5-chloro-2-hydroxyphenyl)(1H-indole-2-yl)methyl)-6-(4-(piperazine-1-yl)phenyl)isoindolin-1-one] | 12 nM | increased cell viability | significantly reduced the cell viability |
| O=C1c2cc(-c3ccc(N4CCNCC4)cc3)ccc2CN1[C@@H](c1cc2ccccc2[nH]1)c1cc(F)ccc1O [Example 32, (R)-2-((5-fluoro-2-hydroxyphenyl)(1H-indole-2-yl)methyl)-6-(4-(piperazine-1-yl)phenyl)isoindolin-1-one] | 8 nM | increased cell viability | significantly reduced the cell viability |
| O=C1c2cc(-c3ccc(N4CCNCC4)cc3)ccc2CN1C(c1nc2ccccc2[nH]1)c1cc(F)ccc1O (stereo not shown) [Example 10, 2-((1H-benzo[d]imidazole-2-yl)(5-fluoro-2-hydroxyphenyl)methyl)-6-(4-(piperazine-1-yl)phenyl)isoindolin-1-one] | 99 nM |  |  |
| O=C1c2cc(C3=CCNCC3)ccc2CN1C(c1nc2ccccc2[nH]1)c1cc(F)ccc1O (stereo not shown) [Example 16] | 2900 nM |  |  |
| O=C1c2cc(-c3ccc(-c4ccncc4)cc3)ccc2CN1C(c1nc2ccccc2[nH]1)c1cc(F)ccc1O (stereo not shown) [Example 41, 2-((1H-benzo[d]imidazole-2-yl)(5-fluoro-2-hydroxyphenyl)methyl)-6-(4-(pyridine-4-yl)phenyl)isoindolin-1-one] | 220 nM |  |  |
| O=C1c2cc(-c3ccc(C4=CCNCC4)cc3)ccc2CN1[C@@H](c1cc2cc(F)ccc2[nH]1)c1cc(F)ccc1O [Example 52, (R)-2-((5-fluoro-1H-indole-2-yl)(5-fluoro-2-hydroxyphenyl)methyl)-6-(4-(1,2,3,6-tetrahydropyridine-4-yl)phenyl)isoindolin-1-one] | > 10000 nM |  |  |
| O=C1c2cc(-c3ccc(-c4ccncc4)cc3)ccc2CN1[C@@H](c1cc2ccccc2[nH]1)c1cc(Cl)ccc1O [Example 48, (R)-2-((5-chloro-2-hydroxyphenyl)(1H-indole-2-yl)methyl)-6-(4-(pyridine-4-yl)phenyl)isoindolin-1-one] | > 10000 nM |  |  |

— patent US11976059B2 (KOREA RESEARCH INSTITUTE OF CHEMICAL TECHNOLOGY, priority 2018, dated 2024)
